Data from US20150141381A1, “TETRACYCLINE COMPOUNDS HAVING TARGET THERAPEUTIC ACTIVITIES” (Paratek Pharmaceuticals, Inc., priority 2001, published 2015).
Like-named read-outs stand apart in the source and are kept apart here.

Experiments:
S. aureus RN450 = assay: In Vitro Anti-Bacterial Activity Assay (MIC), gram positive; type: cell-based; conditions: Staphylococcus aureus, RN450, 18 h
E. coli mL308 225 = assay: In Vitro Anti-Bacterial Activity Assay (MIC), gram negative; type: cell-based; conditions: Escherichia coli, ML308225, 18 h
[1] = MIC class, Table 3 (Continued), read-out: Gram+ activity
[2] = MIC class, Table 3 (Continued), read-out: Gram− activity
[3] = gram positive bacteria, read-out: Antibiotic Activity Gram + (MIC)
[4] = gram negative bacteria, read-out: Antibiotic Activity Gram − (MIC)
[5] = MIC class, Table 3, read-out: Antibiotic Activity Gram +
[6] = MIC class, Table 3, read-out: Antibiotic Activity Gram −
[7] = read-out: Antibiotic Activity Gram +
[8] = read-out: Antibiotic Activity Gram −

Compound	MIC (S. aureus RN450; [3]) [µg/mL]	MIC (E. coli mL308 225; [4]) [µg/mL]	MIC (S. aureus RN450; [5]) [µg/mL]	MIC (E. coli mL308 225; [6]) [µg/mL]	other results
CN(C)[C@@H]1C(O)=C(C(N)=O)C(=O)[C@@]2(O)C(O)=C3C(=O)c4c(O)ccc(/C=C/c5c(F)c(F)c(F)c(F)c5F)c4C[C@H]3C[C@@H]12	–	–	–	–	MIC (S. aureus RN450; [1]): < 4 µg/mL; MIC (E. coli mL308 225; [2]): > 4 µg/mL
CCONC(C)c1ccc(O)c2c1C[C@H]1C[C@H]3[C@H](N(C)C)C(O)=C(C(N)=O)C(=O)[C@@]3(O)C(O)=C1C2=O (stereo partly drawn)	< 4	< 4	–	–	–
COc1ccc(CN(C)C)cc1-c1ccc(O)c2c1C[C@H]1C[C@H]3[C@H](N(C)C)C(O)=C(C(N)=O)C(=O)[C@@]3(O)C(O)=C1C2=O [CJ]	–	–	< 4	< 4	–
CC(=O)OCC(=O)Nc1ccc(-c2ccc(O)c3c2C[C@H]2C[C@H]4[C@H](N(C)C)C(O)=C(C(N)=O)C(=O)[C@@]4(O)C(O)=C2C3=O)cc1	< 4	> 4	–	–	–
CN(C)[C@@H]1C(O)=C(C(N)=O)C(=O)[C@@]2(O)C(O)=C3C(=O)c4c(O)ccc(-c5ccncc5Cl)c4C[C@H]3C[C@@H]12	< 4	< 4	–	–	–
CN(C)c1cc(CNC(=O)OCC(Cl)(Cl)Cl)c(O)c2c1C[C@H]1C[C@H]3[C@H](N(C)C)C(O)=C(C(N)=O)C(=O)[C@@]3(O)C(O)=C1C2=O [FI]	–	–	< 4	> 4	–
CCc1cc(C(C)=O)c(O)c2c1C[C@H]1C[C@H]3[C@H](N(C)C)C(O)=C(C(N)=O)C(=O)[C@@]3(O)C(O)=C1C2=O [IY]	–	–	< 4	> 4	–
CN(C)c1cc(CNC(=O)Oc2ccccc2)c(O)c2c1C[C@H]1C[C@H]3[C@H](N(C)C)C(O)=C(C(N)=O)C(=O)[C@@]3(O)C(O)=C1C2=O [EP]	–	–	–	–	MIC (S. aureus RN450; [7]): < 4 µg/mL; MIC (E. coli mL308 225; [8]): > 4 µg/mL
CCc1cc(NCC(C)C)c(O)c2c1C[C@H]1C[C@H]3[C@H](N(C)C)C(O)=C(C(N)=O)C(=O)[C@@]3(O)C(O)=C1C2=O	< 4	< 4	–	–	–
CC(CCO)NCc1cc(N(C)C)c2c(c1O)C(=O)C1=C(O)[C@]3(O)C(=O)C(C(N)=O)=C(O)[C@@H](N(C)C)[C@@H]3C[C@@H]1C2 (stereo partly drawn)	< 4	> 4	–	–	–
CCOc1ccccc1-c1ccc(O)c2c1C[C@H]1C[C@H]3[C@H](N(C)C)C(O)=C(C(N)=O)C(=O)[C@@]3(O)C(O)=C1C2=O [AG]	–	–	< 4	> 4	–
COC(=O)C(=O)Nc1ccc(-c2ccc(O)c3c2C[C@H]2C[C@H]4[C@H](N(C)C)C(O)=C(C(N)=O)C(=O)[C@@]4(O)C(O)=C2C3=O)cc1	< 4	> 4	–	–	–
CN[C@@]12C(=O)C(C(N)=O)=C(O)[C@@H](N(C)C)[C@@H]1[C@@H](OC)[C@H]1C(=C2O)C(=O)c2c(O)cccc2[C@@H]1C	> 4	> 4	–	–	–
COc1cccc(CNCc2cc(N(C)C)c3c(c2O)C(=O)C2=C(O)[C@]4(O)C(=O)C(C(N)=O)=C(O)[C@@H](N(C)C)[C@@H]4C[C@@H]2C3)c1	< 4	> 4	–	–	–
CC(=O)c1ccc(-c2cc(N(C)C)c3c(c2O)C(=O)C2=C(O)[C@]4(O)C(=O)C(C(N)=O)=C(O)[C@@H](N(C)C)[C@@H]4C[C@@H]2C3)cc1	< 4	> 4	–	–	–
CN(C)[C@@H]1C(O)=C(C(N)=O)C(=O)[C@@]2(O)C(O)=C3C(=O)c4c(O)ccc(-c5cccc(C(N)=O)c5)c4C[C@H]3C[C@@H]12 [CN]	–	–	< 4	< 4	–
COC(=O)O[C@@]12C(=O)C(C(N)=O)=C(O)[C@@H](N(C)C)[C@@H]1C[C@@H]1Cc3cccc(O)c3C(=O)C1=C2O	> 4	> 4	–	–	–
CN(C)[C@@H]1C(O)=C(C(N)=O)C(=O)[C@@]2(O)C(O)=C3C(=O)c4c(ccc(CN)c4O)C[C@H]3C[C@@H]12 [AR]	–	–	< 4	< 4	–
CN(C)c1cc(NCc2ccccc2C[C@H]2O[C@@H](CO)[C@@H](O)[C@@H](O)[C@H]2O)c(O)c2c1C[C@H]1C[C@H]3[C@H](N(C)C)C(O)=C(C(N)=O)C(=O)[C@@]3(O)C(O)=C1C2=O	> 4	> 4	–	–	–
CN(C)[C@@H]1C(O)=C(C(N)=O)C(=O)[C@@]2(O)C(O)=C3C(=O)c4c(O)ccc(C#CCCC#Cc5ccc(O)c6c5C[C@@]5(C)C[C@@]7(C)[C@H](N(C)C)C(O)C(C(N)=O)C(=O)[C@@]7(O)C(O)=C5C6=O)c4C[C@@]3(C)C[C@@]12C (stereo partly drawn)	> 4	> 4	–	–	–
CN(C)c1cc(NC(=O)Nc2ccccc2)c(O)c2c1C[C@H]1C[C@H]3[C@H](N(C)C)C(O)=C(C(N)=O)C(=O)[C@@]3(O)C(O)=C1C2=O [CB]	–	–	< 4	> 4	–
Cc1ccc(S(=O)(=O)NCC#Cc2cc(N(C)C)c3c(c2O)C(=O)C2=C(O)[C@]4(O)C(=O)C(C(N)=O)=C(O)C(N(C)C)[C@@H]4C[C@@H]2C3)cc1 (stereo partly drawn) [CZ]	–	–	> 4	> 4	–
CN(C)[C@@H]1C(O)=C(C(N)=O)C(=O)[C@@]2(O)C(O)=C3C(=O)c4c(O)c(I)cc(CN)c4C[C@H]3C[C@@H]12 [FV]	–	–	> 4	> 4	–

Compound	MIC (S. aureus RN450; [3]) [µg/mL]	MIC (E. coli mL308 225; [4]) [µg/mL]	MIC (S. aureus RN450; [5]) [µg/mL]	MIC (E. coli mL308 225; [6]) [µg/mL]	other results
CC(=O)Nc1ccc(-c2ccc(O)c3c2C[C@H]2C[C@H]4[C@H](N(C)C)C(O)=C(C(N)=O)C(=O)[C@@]4(O)C(O)=C2C3=O)cc1	< 4	> 4	–	–	–
CN(C)[C@H]1C(O)=C(C(N)=O)C(=O)[C@@]2(O)C(O)=C3C(=O)c4c(O)ccc(-c5ccc(NC(=O)C(C)(C)C)cc5)c4C[C@H]3C[C@@H]12 [GT]	–	–	< 4	> 4	–
CN(C)[C@@H]1C(O)=C(C(N)=O)C(=O)[C@@]2(O)C(O)=C3C(=O)c4c(O)ccc(/C=C(\Cl)CO)c4C[C@H]3C[C@@H]12	–	–	–	–	MIC (S. aureus RN450; [1]): < 4 µg/mL; MIC (E. coli mL308 225; [2]): > 4 µg/mL
CN(C)[C@@H]1C(O)=C(C(N)=O)C(=O)[C@@]2(O)C(O)=C3C(=O)c4c(O)ccc(Cl)c4C[C@H]3C[C@@H]12	< 4	< 4	–	–	–
CN(C)[C@@H]1C(O)=C(C(N)=O)C(=O)[C@@]2(O)C(O)=C3C(=O)c4c(O)ccc(C#CCO)c4C[C@H]3C[C@@H]12	< 4	> 4	–	–	–
CCN(CC)c1cc(CN2CCC(F)CC2)c(O)c2c1C[C@H]1C[C@H]3[C@H](N(C)C)C(O)=C(C(N)=O)C(=O)[C@@]3(O)C(O)=C1C2=O	< 4	< 4	–	–	–
CN(C)[C@@H]1C(O)=C(C(N)=O)C(=O)[C@@]2(O)C(O)=C3C(=O)c4c(O)ccc(C=C5CCC5)c4C[C@H]3C[C@@H]12	–	–	–	–	MIC (S. aureus RN450; [1]): < 4 µg/mL; MIC (E. coli mL308 225; [2]): < 4 µg/mL
CN(C)c1cc(CCC2(O)CCCC2)c(O)c2c1C[C@H]1C[C@H]3[C@H](N(C)C)C(O)=C(C(N)=O)C(=O)[C@@]3(O)C(O)=C1C2=O	> 4	> 4	–	–	–
CN(C)[C@@H]1C(O)=C(C(N)=O)C(=O)[C@@]2(O)C(O)=C3C(=O)c4c(O)ccc(-c5ccc(F)c(C=O)c5)c4C[C@H]3C[C@@H]12	< 4	< 4	–	–	–
CCCCN(CCCC)Cc1cc(N(C)C)c2c(c1O)C(=O)C1=C(O)[C@]3(O)C(=O)C(C(N)=O)=C(O)C(N(C)C)[C@@H]3C[C@@H]1C2 (stereo partly drawn) [EZ]	–	–	< 4	> 4	–
CCCOC(=O)Nc1ccc(-c2ccc(O)c3c2C[C@H]2C[C@H]4[C@H](N(C)C)C(O)=C(C(N)=O)C(=O)[C@@]4(O)C(O)=C2C3=O)cc1	< 4	< 4	–	–	–
CCN(CC)Cc1ccc(O)c2c1C[C@H]1C[C@H]3[C@@H](N(C)C)C(O)=C(C(N)=O)C(=O)[C@@]3(O)C(O)=C1C2=O [KI]	–	–	< 4	< 4	–
C[C@H]1c2cccc(O)c2C(=O)C2=C(O)[C@]3(O)C(=O)C(C(N)=O)=C(O)[C@@H](N(C)C)[C@@H]3[C@@H](O)[C@@H]21 [A]	–	–	< 4	< 4	–
CC(C)NCc1cc(N(C)C)c2c(c1O)C(=O)C1=C(O)[C@]3(O)C(=O)C(C(N)=O)=C(O)[C@@H](N(C)C)[C@@H]3C[C@@H]1C2	< 4	> 4	–	–	–
COc1ccc(-c2cc(CNC(C)CF)c(O)c3c2C[C@H]2C[C@H]4[C@H](N(C)C)C(O)=C(C(N)=O)C(=O)[C@@]4(O)C(O)=C2C3=O)cc1 (stereo partly drawn)	< 4	–	–	–	MIC (E. coli mL308 225; read-out: Antibiotic Activity Gram − (MIC)): > 4 µg/mL
Cc1ccc(-c2ccc(O)c3c2C[C@H]2C[C@H]4[C@H](N(C)C)C(O)=C(C(N)=O)C(=O)[C@@]4(O)C(O)=C2C3=O)cc1	–	–	–	–	MIC (S. aureus RN450; [1]): < 4 µg/mL; MIC (E. coli mL308 225; [2]): < 4 µg/mL
COc1ccc(CN2CCCC2)cc1-c1ccc(O)c2c1C[C@H]1C[C@H]3C(N(C)C)C(O)=C(C(N)=O)C(=O)[C@@]3(O)C(O)=C1C2=O (stereo partly drawn) [ED]	–	–	< 4	< 4	–
CN(C)c1ccc(OCc2ccccc2)c2c1C[C@H]1C[C@H]3[C@H](N(C)C)C(OCc4ccccc4)=C(C(N)=O)C(=O)[C@@]3(O)C(O)=C1C2=O [ON]	–	–	> 4	> 4	–
CN(C)C(=O)CNc1cc(N(C)C)c2c(c1O)C(=O)C1=C(O)[C@]3(O)C(=O)C(C(N)=O)=C(O)[C@@H](N(C)C)[C@@H]3C[C@@H]1C2	> 4	> 4	–	–	–
Cc1ccc(OC(=O)Nc2ccc(O)c3c2C[C@H]2C[C@H]4[C@H](N(C)C)C(O)=C(C(N)=O)C(=O)[C@@]4(O)C(O)=C2C3=O)cc1 [AV]	–	–	–	–	MIC (S. aureus RN450; [7]): < 4 µg/mL; MIC (E. coli mL308 225; [8]): < 4 µg/mL
C[C@H]1c2c(-c3ccc4c(c3)OCO4)cc(-c3cccc4c3OCO4)c(O)c2C(=O)C2=C(O)[C@]3(O)C(=O)C(C(N)=O)=C(O)[C@@H](N(C)C)[C@@H]3[C@@H](O)[C@@H]21 [HF]	–	–	< 4	> 4	–
CN(C)c1cc(C#Cc2ccccn2)c(O)c2c1C[C@H]1C[C@H]3[C@H](N(C)C)C(O)=C(C(N)=O)C(=O)[C@@]3(O)C(O)=C1C2=O [BA]	–	–	> 4	> 4	–
